A short description of data set [1]: Example 1: plasma pharmacokinetics (Cmax, Tmax, AUC0-6 hr) of belumosudil and metabolites. The class given is in vivo, human. As to conditions: for AUC0-6 hr, Geometric Mean (Geometric Coefficient of Variation): plasma. On the procedure:
Cmax was the maximum observed plasma concentration, obtained by a non-compartmental analysis. […] Timeframe: Cycles 1 and 2: pre-dose (0 hour), 1, 2, 3, 4, 5, and 6 hours post-dose on Day 1. […] Here, ‘number analyzed’=participants with available data for each specified category.
Tmax was defined as time to reach maximum observed plasma concentration, obtained by a non-compartmental analysis. […] Timeframe: Cycles 1 and 2: pre-dose (0 hour), 1, 2, 3, 4, 5, and 6 hours post-dose on Day 1. Analysis was performed on PK population. Here, ‘number analyzed’=participants with available data for each specified category.
AUC0-6 hr was defined as area under the plasma concentration versus time curve from time 0 to 6 hours post-dose, obtained by a non-compartmental analysis from the concentration-time data. […] Timeframe: Cycles 1 and 2: pre-dose (0 hour), 1, 2, 3, 4, 5, and 6 hours post-dose on Day 1. Analysis was performed on PK population. Here, ‘number analyzed’=participants with available data for each specified category.

For the next data set, the target named is CYP3A4 (Homo sapiens, UniProt P08684). Put plainly: metabolism in vitro. It counts as in vitro ADME.
Sequence of CYP3A4 (P08684 whole entry): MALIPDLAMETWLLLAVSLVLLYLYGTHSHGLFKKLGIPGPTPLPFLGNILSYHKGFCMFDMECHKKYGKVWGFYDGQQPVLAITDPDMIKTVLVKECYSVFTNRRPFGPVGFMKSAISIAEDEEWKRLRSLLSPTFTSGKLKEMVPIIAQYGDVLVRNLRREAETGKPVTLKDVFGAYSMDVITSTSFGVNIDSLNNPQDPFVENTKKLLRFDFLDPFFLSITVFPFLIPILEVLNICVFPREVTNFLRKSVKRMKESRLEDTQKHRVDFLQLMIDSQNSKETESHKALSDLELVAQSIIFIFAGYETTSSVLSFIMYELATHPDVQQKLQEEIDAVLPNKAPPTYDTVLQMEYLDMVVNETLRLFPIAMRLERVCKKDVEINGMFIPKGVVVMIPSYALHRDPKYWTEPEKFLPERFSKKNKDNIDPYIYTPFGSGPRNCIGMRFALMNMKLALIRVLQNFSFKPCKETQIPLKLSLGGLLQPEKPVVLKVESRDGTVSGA
The next data set has as its target T1, BCRP (Homo sapiens, UniProt Q9UNQ0).
T1 sequence (Q9UNQ0 1-655): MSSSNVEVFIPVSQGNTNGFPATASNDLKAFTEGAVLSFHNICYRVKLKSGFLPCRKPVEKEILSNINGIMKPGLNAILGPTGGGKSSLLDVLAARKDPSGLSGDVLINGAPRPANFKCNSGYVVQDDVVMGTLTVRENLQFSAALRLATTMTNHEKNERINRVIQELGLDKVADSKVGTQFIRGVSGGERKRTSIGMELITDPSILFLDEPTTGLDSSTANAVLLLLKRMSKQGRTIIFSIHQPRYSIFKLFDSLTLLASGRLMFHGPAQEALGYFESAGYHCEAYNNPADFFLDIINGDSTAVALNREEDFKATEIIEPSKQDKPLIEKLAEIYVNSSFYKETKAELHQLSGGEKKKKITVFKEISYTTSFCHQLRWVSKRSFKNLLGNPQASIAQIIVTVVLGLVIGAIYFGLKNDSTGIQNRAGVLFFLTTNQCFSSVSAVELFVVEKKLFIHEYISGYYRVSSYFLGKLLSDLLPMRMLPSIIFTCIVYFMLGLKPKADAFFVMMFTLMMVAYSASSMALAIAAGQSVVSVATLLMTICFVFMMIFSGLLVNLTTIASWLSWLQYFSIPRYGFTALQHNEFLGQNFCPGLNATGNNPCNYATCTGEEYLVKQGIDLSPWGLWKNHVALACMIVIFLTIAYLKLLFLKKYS
Put plainly: transporter inhibition in vitro. It counts as in vitro ADME. The settings on record: at clinically relevant concentrations.

The nature of data set [2]: pharmacokinetics in specific populations (population pharmacokinetics). More on the design: species or system human. The settings on record: in vivo.

Each structure is given as a SMILES string.

Turning to `CC(C)NC(=O)COc1cccc(-c2nc(Nc3ccc4[nH]ncc4c3)c3ccccc3n2)c1` [Belumosudil, 2-{3-[4-(1H-indazol-5-ylamino)-2-quinazolinyl]phenoxy}-N-(propan-2-yl) acetamide], the “Cmax, geometric mean (geometric CV)” value in data set [1] (Cycle 1 Day 1, Cohort 1, belumosudil 200 mg QD) turned out to be 2500 nanograms per milliliter; in data set [1] (Cycle 1 Day 1, Cohort 2, belumosudil 200 mg BID), 1400 nanograms per milliliter; in data set [1] (Cycle 1 Day 1, Cohort 3, belumosudil 400 mg QD) it was 2960 nanograms per milliliter; in data set [1] (Cycle 2 Day 1, Cohort 1, belumosudil 200 mg QD), 2020 nanograms per milliliter; in data set [1] (Cycle 2 Day 1, Cohort 2, belumosudil 200 mg BID), 1890 nanograms per milliliter; in data set [1] (Cycle 2 Day 1, Cohort 3, belumosudil 400 mg QD) it was 3270 nanograms per milliliter. The “AUC0-6 hr, Geometric Mean (Geometric Coefficient of Variation)” value is recorded as 4960 hours*nanograms per milliliter in data set [1] (Belumosudil 200 mg BID, Cycle 1 Day 1); 7190 hours*nanograms per milliliter in data set [1] (Belumosudil 200 mg BID, Cycle 2 Day 1); 8350 hours*nanograms per milliliter in data set [1] (Belumosudil 200 mg QD, Cycle 1 Day 1); 7090 hours*nanograms per milliliter in data set [1] (Belumosudil 200 mg QD, Cycle 2 Day 1); 11500 hours*nanograms per milliliter in data set [1] (Belumosudil 400 mg QD, Cycle 1 Day 1); 12000 hours*nanograms per milliliter in data set [1] (Belumosudil 400 mg QD, Cycle 2 Day 1). The “metabolism by CYP3A4” value on CYP3A4 is given as “primarily metabolized”. Moreover, the “inhibition of BCRP” value against BCRP is on record as “inhibits”. Further, the “effect of age and body weight on pharmacokinetics (population pharmacokinetic data)” value in data set [2] was “no clinically meaningful effect”. Also, the “pharmacokinetic differences by age, sex, weight, mild to moderate renal impairment” value in data set [2] is “No clinically significant differences”.
